# Measurements from patent US9011816B2, “Fibronectin targeting contrast agent” (Case Western Reserve University, priority 2011, dated 2015).
# Columns and labels:
# [1] = test system: orthotopic human prostate tumor; assay: in vivo MR imaging of orthotopic human prostate tumor in nu/nu nude athymic mice; settings: nu/nu nude athymic mice bearing orthotopic human prostate tumor; 0.03 mmol-Gd/kg; versus non-targeted scrambled CLT1-(DOTA-Gd)4
# Method: In animal tumor models […] athymic nu/nu mice (4-6 weeks old), were purchased from the Animal Resource Center (ARC) of Case Western Reserve Universitey. A suspension of PC3 with GFP cells (PC3-GFP) were harvested and suspended in a sterile phosphate-buffered saline solution. The mixture (5×10^5 cells, 25 μL) was surgically inoculated into the ventral prostate through the dorsal prostate.
# FIG. 3 illustrates an enhancement ratio and a signal to noise ratio of the targeted CLT1-(DOTA-Gd)4 and non-targeted scrambled CLT1-(DOTA-Gd)4. The MRI contrast agents, targeted CLT1-(DOTA-Gd)4 and non-targeted scrambled CLT1-(DOTA-Gd)4 were administer at 0.03 mmol-Gd/kg in nu/nu nude athymic mice (n=4) bearing orthotopic human prostate tumor.
# [2] = test system: atherosclerotic ApoE-deficient mice; assay: in vivo MR imaging in atherosclerotic ApoE-deficient mice; settings: images at baseline and in fifteen minute intervals up to sixty minutes after injection, versus scrambled peptides and Magnevist
# Excerpt: An atherosclerotic mice model was run with 12 week old Apoe knockout mice (B6.129P2 Apotem1UNC/J) and control mice (C57BL/J6) were purchased from Jackson Lab. Apoe knockout mice were fed with a high fat diet (60% fat) after arriving and were maintained for 6 months. Control mice were fed with a normal diet (6% fat).
# FIG. 1 illustrates in vivo MR images acquired in atherosclerotic ApoE-deficient mice before and after injection of targeted CLTI-(DOTA-Gd)4 or CREKA-(DOTA-Gd)4 and non-targeted controls. Arrows point to atherosclerotic aorta and insets are enlargements of aorta. The images show a baseline image at zero minutes before an injection of contrast agent. The images progress to injection and in fifteen minute intervals up to sixty minutes. The images illustrate targeted peptides, scrambled peptides, and Magnevist.
# [3] = test system: orthotopic 4T1 breast tumor; assay: in vivo T1-weighted MR imaging of orthotopic 4T1 breast tumor in BALB/c mice; settings: BALB/c mice bearing orthotopic 4T1 breast tumor; 0.03 mmol-Gd/kg; T1 weighted axial 2D gradient images; versus non-targeted scrambled CLT1-(DOTA-Gd)4
# Method: A […] breast tumor model was also run. A 4T1 cell line was cultured using ATCC complete growth medium. Female Balb/c mice (4-6 weeks old) were purchased from Jackson Lab. The suspension of 4T1 cells in PBS was mixed with Matrigel matrix at 1:1 ratio. The mixture (2×10^6 cells, 100 μL) was surgically implanted in the mammary pad of a mouse when a mouse was approximately 8-10 weeks old.
# FIG. 2 illustrates T1-weighted axial 2D gradient images of […] breast cancer tumor. Both CLT1-(DOTA-Gd)4 and non-targeted scrambled CLT1-(DOTA-Gd)4 were investigated in […] BALB/c mice bearing orthotopic 4T1 […] breast tumor. […] The images in row (A) of the targeted CLT1-(DOTA-Gd)4. Images in row (A) illustrate a time sequence of the targeted CLT1-(DOTA-Gd)4. Images in row (B) illustrate the time sequence for non-targeted CLT1-(DOTA-Gd)4.
substance,measurement,setting,value
CLT1-PEG-(Lys)3-(DOTA-Gd)4 [CLT1-(DOTA-Gd)4],"signal intensity within the tumor tissue (enhancement ratio, signal to noise ratio; FIG. 3)",[1],greater enhancement than non-target agents
same,MR contrast enhancement (FIG. 1),[2],greater and longer enhancement in tumor tissue compared to non-targeted scrambled peptides and controls
same,MR contrast enhancement in tumor tissue (FIG. 2),[3],greater and longer enhancement in tumor tissue compared to non-targeted scrambled CLT1-(DOTA-Gd)4
